Experimental findings from patent EP0404162A1, “Composition for treating pigmentation” (priority 1989, dated 1990) are described below.

Each structure is given as a SMILES string.

A short description of data set [1]: Toxicity (LD50), subcutaneous administration, mice. Conditions: mouse, in vivo, sc, read-out: LD₅₀. The procedure: (§1) The toxicity of kojic acid which is the effective ingredient of the present invention is extremely low; LD₅₀ is 2.050 mg/kg in mice and 2.260 mg/kg in rats, by subcutaneous administration. Therefore, the present invention is quite safe as a medicament.

Data set [2] can be described thus: Toxicity (LD50), subcutaneous administration, rats. The conditions noted are these: rat, in vivo, sc, read-out: LD₅₀. The procedure: as §1

Consider `O=c1cc(CO)occ1O` [kojic acid, 5-oxy-2-oxymethyl-γ-pyrone], for which the LD50 amounted to 2.05 mg/kg in data set [1] and 2.26 mg/kg in data set [2].
